Results on 4 molecules are retold here after paper PMC12364708, “Structures and mechanism of the AUX/LAX transporters involved in auxin import” (Nature Plants, 2025).

The target of one experiment is T1, LAX3 (Arabidopsis thaliana, UniProt Q9CA25).
T1 construct: full-length wild type, cRNA injected into Xenopus laevis oocytes
T1 sequence (Q9CA25 1-470): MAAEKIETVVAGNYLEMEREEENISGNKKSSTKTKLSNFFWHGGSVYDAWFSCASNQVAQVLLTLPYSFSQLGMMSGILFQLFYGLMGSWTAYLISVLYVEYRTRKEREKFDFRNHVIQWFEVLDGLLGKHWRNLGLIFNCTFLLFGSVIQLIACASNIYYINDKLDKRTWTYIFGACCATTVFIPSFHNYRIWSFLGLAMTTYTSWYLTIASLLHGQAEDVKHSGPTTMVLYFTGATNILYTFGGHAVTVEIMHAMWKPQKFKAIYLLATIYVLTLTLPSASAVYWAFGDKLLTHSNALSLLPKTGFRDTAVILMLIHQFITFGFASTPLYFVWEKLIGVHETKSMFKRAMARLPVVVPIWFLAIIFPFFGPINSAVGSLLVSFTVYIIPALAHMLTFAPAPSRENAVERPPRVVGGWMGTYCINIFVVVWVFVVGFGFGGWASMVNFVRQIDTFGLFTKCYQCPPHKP
The experiment can be described thus: competition with 3H-IAA uptake into Xenopus oocytes. In kind it is cell-based. The settings on record: 100 nM 3H-IAA; pH 6, room temperature, 8 min; competitive.

The target of experiment [1] is T2, LAX3 (residues 44–470) (Arabidopsis thaliana, UniProt Q9CA25).
T2 construct: N-terminally truncated, residues 44-470; C-terminal TEV site and His10 tag, cut with TEV; expressed in Saccharomyces cerevisiae DSY-5; LMNG/CHS; 47 kDa
T2 sequence (Q9CA25 44-470): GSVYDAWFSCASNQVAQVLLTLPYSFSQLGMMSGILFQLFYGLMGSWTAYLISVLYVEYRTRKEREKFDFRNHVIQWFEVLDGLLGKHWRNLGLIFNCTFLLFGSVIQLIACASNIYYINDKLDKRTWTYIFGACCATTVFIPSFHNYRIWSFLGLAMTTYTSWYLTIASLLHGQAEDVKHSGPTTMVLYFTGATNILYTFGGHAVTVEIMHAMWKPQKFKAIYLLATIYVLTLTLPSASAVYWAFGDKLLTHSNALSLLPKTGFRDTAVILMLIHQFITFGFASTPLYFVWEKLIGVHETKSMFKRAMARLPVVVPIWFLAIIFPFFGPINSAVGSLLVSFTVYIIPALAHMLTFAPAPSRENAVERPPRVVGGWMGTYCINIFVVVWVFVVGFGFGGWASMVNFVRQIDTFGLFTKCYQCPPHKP
The experiment can be described thus: cryo-EM structure, […] Å. The conditions noted are these: pH 7.5; 5 mM 2-NOA; LMNG; central binding pocket, fully occluded.

The target in experiment [2] is T2, LAX3 (residues 44–470). The experiment is described as follows: cryo-EM structure, […] Å. The conditions noted are these: pH 7.5; 5 mM IAA; LMNG; central binding pocket, inward semi-occluded.

Take `O=C(O)COc1cccc2ccccc12` [1-NOA]: at LAX3, the “inhibition of IAA uptake at 10 μM” value was “these data demonstrate a competitive effect of all three compounds”.

For `O=C(O)COc1ccc(Cl)cc1Cl` [2,4-D], the “inhibition of IAA uptake at 10 μM” value at LAX3 was “these data demonstrate a competitive effect of all three compounds”.

Regarding `O=C(O)COc1ccc2ccccc2c1` [2-NOA], on LAX3 (residues 44–470) [1], the “cryo-EM structure, 2.88 Å” value is 2-NOA bound LAX3 fully occluded: PDB 9H63 and EMD-51896. The “inhibition of IAA uptake at 10 μM” value at LAX3 is recorded as “these data demonstrate a competitive effect of all three compounds”. With `O=C(O)Cc1c[nH]c2ccccc12` [IAA], the “cryo-EM structure, 3.21 Å” value on LAX3 (residues 44–470) [2] was “IAA-bound LAX3 inward semi-occluded: PDB 9H61 and EMD-51894”.
